Laboratory results reported in paper doi:10.1101/2025.02.17.638454, “Synergistic RAS-MAPK and AKT Activation in MYC-Driven Tumors via Adjacent PVT1 Rearrangements” (bioRxiv, 2025).
No end group written: not given here.

Assays:
[1] = tested on: HNB; experiment: ITC of HNB into assay buffer (self-interaction, baseline control); type: binding; conditions: 500 µM HNB into ITC assay buffer, 25°C
Procedure: Isothermal titration calorimetry (ITC) measures the change in temperature when two or more biomolecules bind to each other in a solution. The assay provides the binding affinity of ligands to proteins and the entropy or enthalpy of the reaction. Recombinant KRAS protein (#ab156968, Abcam) was dialyzed into the ITC assay buffer (20mM Tris pH 8.0, 100mM NaCl, 5mM Beta-mercaptoethanol) and concentrated to about 100 μM. During ITC titration twenty 6 μl injections (with intervals of 150 seconds) of 500μM HNB were made into the ITC cell containing 93 μM KRAS. Titration of 500μM HNB into the ITC assay buffer under the same conditions was used as the baseline control. ITC experiments were performed using Affinity ITC instrument (TA Instruments) at 25°C. The data was fitted and analyzed using NanoAnalyze software provided by TA Instruments. […]
(§1) bioRxiv preprint doi: https://doi.org/10.1101/2025.02.17.638454; this version posted February 22, 2025. The copyright holder for this preprint (which was not certified by peer review) is the author/funder, who has granted bioRxiv a license to display the preprint in perpetuity. It is made available under aCC-BY 4.0 International license. […]

[2] = tested on: HALLMARK_MTORC1_SIGNALING; experiment: GSEA MTORC1 signaling, SK-PN-DW; type: cell-based, human; conditions: si.CircPVT1 vs si.Ctrl, n=3, Padj = 0.010
Source text: RNAseq processing: Raw reads were mapped to the hg19 human reference genome using the STAR aligner (v.2.5.0a) 66. PCR-duplicated reads and low mapping quality reads (MQ score below 20) were removed using Picard tools and SAMtools, respectively. Aligned reads were counted using htseq-count (v.0.6.1p1) 69 and normalized according to size factors method from DESeq2 70. We used fold change ≥2 and FDR <0.05 as the determination of differentially expressed genes (DEG). Statistical analysis and plots were performed inside R environment version 3.1.0. upload files) […]
as §1, with “a CC-BY” for “aCC-BY”, “license .” for “license.”
Supplementary Figure 11: Gene set enrichment analysis scores (GSEA) analysis of genes involved in MTORC 1 signaling in COLO320DM (A) and SK-PN-DW (B) treated with si.CircPVT 1. si.Ctrl was used as control. n=3, for each treatment condition .
(also on this page, place not known: SK-PN-DWB MTORC1 si.CircPVT1. condition. Enrichment Score Enrichment Score .CC-BY licenseavailable preprintthis https://doi.org/10.1101/2025.02.17.638454doi:) […]

| Substance | HNB self-interaction [1] | NES, HALLMARK_MTORC1_SIGNALING [2] |
| --- | --- | --- |
| MKTQLGAVKGFLHV [HNB] | not detected |  |
| si.CircPVT1: siRNA targeting the junction sequence of CircPVT1, 5’-UGGGCUUGAGGCCUGAUCUUU-3’ (other strand not given here) |  | -1.859 |
